Experimental findings from ChEMBL document CHEMBL4184305, “Inhibition of histone lysine methyltransferases G9a and GLP by ejection of structural Zn(II)” (Bioorg Med Chem Lett, 2018) are described below.

This experiment concerns the target T1, Histone-lysine N-methyltransferase EHMT1 (Homo sapiens) (UniProt Q9H9B1).
T1 sequence (whole entry): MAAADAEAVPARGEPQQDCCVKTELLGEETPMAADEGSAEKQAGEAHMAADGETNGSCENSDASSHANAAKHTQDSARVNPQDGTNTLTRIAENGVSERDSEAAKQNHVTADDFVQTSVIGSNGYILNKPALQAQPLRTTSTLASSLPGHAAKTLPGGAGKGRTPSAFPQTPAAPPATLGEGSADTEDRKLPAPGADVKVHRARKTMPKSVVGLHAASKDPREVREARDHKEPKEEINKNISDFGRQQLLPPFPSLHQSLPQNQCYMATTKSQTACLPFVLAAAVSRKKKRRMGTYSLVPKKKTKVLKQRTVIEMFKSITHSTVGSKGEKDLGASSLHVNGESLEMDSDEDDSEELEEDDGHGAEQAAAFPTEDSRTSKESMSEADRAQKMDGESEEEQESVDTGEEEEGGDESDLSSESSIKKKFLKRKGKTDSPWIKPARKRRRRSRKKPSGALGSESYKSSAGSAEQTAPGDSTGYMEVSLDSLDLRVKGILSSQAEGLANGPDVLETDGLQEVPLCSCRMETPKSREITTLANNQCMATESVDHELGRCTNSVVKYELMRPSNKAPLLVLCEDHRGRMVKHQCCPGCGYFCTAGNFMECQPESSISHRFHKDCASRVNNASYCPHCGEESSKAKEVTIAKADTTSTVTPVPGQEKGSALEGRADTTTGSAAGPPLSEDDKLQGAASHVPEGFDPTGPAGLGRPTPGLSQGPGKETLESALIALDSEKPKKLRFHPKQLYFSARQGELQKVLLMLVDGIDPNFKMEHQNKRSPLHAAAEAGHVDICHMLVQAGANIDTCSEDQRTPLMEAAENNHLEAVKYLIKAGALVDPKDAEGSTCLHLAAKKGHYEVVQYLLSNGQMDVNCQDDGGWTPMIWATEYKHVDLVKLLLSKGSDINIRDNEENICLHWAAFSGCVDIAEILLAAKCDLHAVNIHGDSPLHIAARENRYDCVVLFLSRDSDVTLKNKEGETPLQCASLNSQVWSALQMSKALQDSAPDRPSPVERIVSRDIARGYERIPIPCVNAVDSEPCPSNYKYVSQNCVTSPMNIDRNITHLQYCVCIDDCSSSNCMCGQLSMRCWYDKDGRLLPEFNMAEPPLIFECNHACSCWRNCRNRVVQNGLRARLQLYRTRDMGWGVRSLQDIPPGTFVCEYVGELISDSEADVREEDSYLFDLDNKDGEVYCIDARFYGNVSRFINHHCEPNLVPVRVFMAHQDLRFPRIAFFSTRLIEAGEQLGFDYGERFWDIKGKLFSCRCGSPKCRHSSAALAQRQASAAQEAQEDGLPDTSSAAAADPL
Put plainly: Inhibition of wild type recombinant human histone lysine methyltransferase GLP (951 to 1235 residues) expressed in Escherichia coli Rosetta BL21 DE3 PlysS assessed as zinc ions ejection from Cys4-Zn finger at 2.5 to 100 uM measured up to 1 min by FluoZin-3 based fluorescence assay.

The source made the active and inactive calls. The calls are words filed in the database; no cut-off is given here.

`O=c1c2ccccc2[se]n1-c1ccccc1` [EBSELEN]: the inhibition entry was “Active”.
